Patent US20250230193A1, “CYCLIC COMPOUND HAVING SELECTIVE KRAS INHIBITORY EFFECT ON HRAS AND NRAS” (CHUGAI SEIYAKU KABUSHIKI KAISHA, priority 2022, published 2025)

Key:
[1] = molecular target: GDP-bound NRAS wild-type protein (Homo sapiens, UniProt P01111); test: Binding to NRAS by surface plasmon resonance (SPR), Single Cycle Kinetics; conditions: KD ratio, GDP-bound NRAS wild-type vs GDP-bound KRAS wild-type, SPR
[2] = molecular target: GDP-bound HRAS wild-type protein (Homo sapiens, UniProt P01112); test: Binding to HRAS by surface plasmon resonance (SPR), Single Cycle Kinetics; conditions: KD ratio, GDP-bound HRAS wild-type vs GDP-bound KRAS wild-type, SPR
GDP-bound HRAS wild-type protein, sequence (P01112 whole entry): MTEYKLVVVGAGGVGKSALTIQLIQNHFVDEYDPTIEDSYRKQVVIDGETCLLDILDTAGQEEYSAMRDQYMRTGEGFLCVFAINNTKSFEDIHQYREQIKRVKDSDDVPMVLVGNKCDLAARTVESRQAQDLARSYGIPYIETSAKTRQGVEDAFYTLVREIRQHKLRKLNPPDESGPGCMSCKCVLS

GDP-bound NRAS wild-type protein, sequence (P01111 whole entry): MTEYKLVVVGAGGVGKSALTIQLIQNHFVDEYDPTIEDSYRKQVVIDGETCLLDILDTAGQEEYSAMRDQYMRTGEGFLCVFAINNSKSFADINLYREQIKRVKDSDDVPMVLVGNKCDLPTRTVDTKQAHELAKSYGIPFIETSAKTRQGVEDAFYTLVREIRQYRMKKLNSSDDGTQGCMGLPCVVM

SMILES | NRAS/KRAS (ratio of KD value for NRAS to KD value for KRAS) [1] | HRAS/KRAS (ratio of KD value for HRAS to KD value for KRAS) [2]
CC[C@H](C)[C@@H]1NC(=O)[C@H](CC)N(C)C(=O)C[C@@H](C(=O)N(C)C)N(C)C(=O)[C@H](C2CCCC2)N(C)C(=O)C2(CC(C)(C)C2)NC(=O)[C@@H]2C[C@H](C)CN2C(=O)[C@H](CCc2cc(F)c(C(F)(F)F)c(F)c2)NC(=O)CN(C)C(=O)[C@H](Cc2ccc(C)cc2)N2CC/C=C\C[C@@H](C2=O)N(C)C(=O)CN(C)C1=O [PP1856] | A (a compound having 10 or more and less than 20 is denoted as A) | A (a compound having 10 or more and less than 20 is denoted as A)
CCC[C@H]1C(=O)N[C@@H]([C@@H](C)CC)C(=O)N(C)CC(=O)N(C)[C@H]2C/C=C\CCN(C2=O)[C@@H](Cc2ccc(C)cc2)C(=O)N(C)CC(=O)N[C@@H](CCc2ccc(C(F)(F)F)c(OC)c2)C(=O)N2C[C@@H](C)C[C@H]2C(=O)NC2(CCC2)C(=O)N(C)[C@@H](C2CCCC2)C(=O)N(C)[C@H](C(=O)N(C)C)CC(=O)N1C [PP1857] | A (a compound having 10 or more and less than 20 is denoted as A) | B (a compound having 3 or more and less than 10 is denoted as B)
CCC[C@H]1C(=O)N[C@@H]([C@@H](C)CC)C(=O)N(C)CC(=O)N(C)[C@H]2C/C=C\CCN(C2=O)[C@@H](Cc2ccc(C)cc2)C(=O)N(C)CC(=O)N[C@@H](CCc2ccc(C(F)(F)F)c(OC)c2)C(=O)N2C[C@H](C)C[C@H]2C(=O)NC2(CCC2)C(=O)N(C)[C@@H](C2CCCC2)C(=O)N(C)[C@H](C(=O)N(C)C)CC(=O)N1C [PP1859] | A (a compound having 10 or more and less than 20 is denoted as A) | A (a compound having 10 or more and less than 20 is denoted as A)
CCC[C@H]1C(=O)N[C@@H]([C@@H](C)CC)C(=O)N(C)CC(=O)N(C)[C@H]2C/C=C\CCN(C2=O)[C@@H](Cc2ccc(C)cc2)C(=O)N(C)CC(=O)N[C@@H](CCc2cc(F)c(C(F)(F)F)c(F)c2)C(=O)N2C[C@@H](C)C[C@H]2C(=O)NC2(CCC2)C(=O)N(C)[C@@H](C2CCCC2)C(=O)N(C)[C@H](C(=O)N(C)CC)CC(=O)N1C [PP1860] | A (a compound having 10 or more and less than 20 is denoted as A) | A (a compound having 10 or more and less than 20 is denoted as A)
CC[C@H](C)[C@@H]1NC(=O)[C@H](CC2CC2)N(C)C(=O)C[C@@H](C(=O)N(C)C)N(C)C(=O)[C@H](C2CCCC2)N(C)C(=O)C2(CCC2)NC(=O)[C@@H]2C[C@H](C)CN2C(=O)[C@H](CCc2ccc(C(F)(F)F)c(OC)c2)NC(=O)CN(C)C(=O)[C@H](Cc2ccc(C)cc2)N2CC/C=C\C[C@@H](C2=O)N(C)C(=O)CN(C)C1=O [PP1861] | A (a compound having 10 or more and less than 20 is denoted as A) | B (a compound having 3 or more and less than 10 is denoted as B)
CCC[C@H]1C(=O)N[C@@H]([C@@H](C)CC)C(=O)N(C)CC(=O)N(C)[C@H]2C/C=C\CCN(C2=O)[C@@H](Cc2ccc(C)cc2)C(=O)N(C)CC(=O)N[C@@H](CCc2cc(F)c(C(F)(F)F)c(F)c2)C(=O)N2C[C@H](C)C[C@H]2C(=O)NC2(CCC2)C(=O)N(C)[C@@H](C2CCCC2)C(=O)N(C)[C@H](C(=O)N(C)CC)CC(=O)N1C [PP1862] | A (a compound having 10 or more and less than 20 is denoted as A) | A (a compound having 10 or more and less than 20 is denoted as A)
CC[C@H](C)[C@@H]1NC(=O)[C@H](CC2CC2)N(C)C(=O)C[C@@H](C(=O)N(C)C)N(C)C(=O)[C@H](C2CCCC2)N(C)C(=O)C2(CCC2)NC(=O)[C@@H]2C[C@@H](C)CN2C(=O)[C@H](CCc2ccc(C(F)(F)F)c(OC)c2)NC(=O)CN(C)C(=O)[C@H](Cc2ccc(C)cc2)N2CC/C=C\C[C@@H](C2=O)N(C)C(=O)CN(C)C1=O [PP1863] | A (a compound having 10 or more and less than 20 is denoted as A) | A (a compound having 10 or more and less than 20 is denoted as A)
CC[C@H](C)[C@@H]1NC(=O)[C@H](CC(C)C)N(C)C(=O)C[C@@H](C(=O)N(C)C)N(C)C(=O)[C@H](C2CCCC2)N(C)C(=O)C2(CCC2)NC(=O)[C@@H]2C[C@H](C)CN2C(=O)[C@H](CCc2cc(F)c(C(F)(F)F)c(F)c2)NC(=O)CN(C)C(=O)[C@H](Cc2ccc(C)cc2)N2CC/C=C\C[C@@H](C2=O)N(C)C(=O)CN(C)C1=O [PP1864] | A (a compound having 10 or more and less than 20 is denoted as A) | B (a compound having 3 or more and less than 10 is denoted as B)
CC[C@H](C)[C@@H]1NC(=O)[C@H](CC(C)C)N(C)C(=O)C[C@@H](C(=O)N(C)C)N(C)C(=O)[C@H](C2CCCC2)N(C)C(=O)C2(CCC2)NC(=O)[C@@H]2C[C@H](C)CN2C(=O)[C@H](CCc2ccc(C(F)(F)F)c(OC)c2)NC(=O)CN(C)C(=O)[C@H](Cc2ccc(C)cc2)N2CC/C=C\C[C@@H](C2=O)N(C)C(=O)CN(C)C1=O [PP1865] | A (a compound having 10 or more and less than 20 is denoted as A) | B (a compound having 3 or more and less than 10 is denoted as B)
CC[C@H](C)[C@@H]1NC(=O)[C@H](CC(C)C)N(C)C(=O)C[C@@H](C(=O)N(C)C)N(C)C(=O)[C@H](C2CCCC2)N(C)C(=O)C2(CCC2)NC(=O)[C@@H]2C[C@@H](C)CN2C(=O)[C@H](CCc2cc(F)c(C(F)(F)F)c(F)c2)NC(=O)CN(C)C(=O)[C@H](Cc2ccc(C)cc2)N2CC/C=C\C[C@@H](C2=O)N(C)C(=O)CN(C)C1=O [PP1866] | A (a compound having 10 or more and less than 20 is denoted as A) | B (a compound having 3 or more and less than 10 is denoted as B)
CC[C@H](C)[C@@H]1NC(=O)[C@H](CC(C)C)N(C)C(=O)C[C@@H](C(=O)N(C)C)N(C)C(=O)[C@H](C2CCCC2)N(C)C(=O)C2(CCC2)NC(=O)[C@@H]2C[C@@H](C)CN2C(=O)[C@H](CCc2ccc(C(F)(F)F)c(OC)c2)NC(=O)CN(C)C(=O)[C@H](Cc2ccc(C)cc2)N2CC/C=C\C[C@@H](C2=O)N(C)C(=O)CN(C)C1=O [PP1867] | A (a compound having 10 or more and less than 20 is denoted as A) | B (a compound having 3 or more and less than 10 is denoted as B)
CCO[C@@H]1C[C@H]2C(=O)NC3(CCC3)C(=O)N(C)[C@@H](C3CCCC3)C(=O)N(C)[C@H](C(=O)N(C)CC)CC(=O)N(C)[C@@H](CC)C(=O)N[C@@H]([C@@H](C)CC)C(=O)N(C)CC(=O)N(C)[C@H]3C/C=C\CCN(C3=O)[C@@H](Cc3ccc(C)cc3)C(=O)N(C)CC(=O)N[C@@H](CCc3ccc(C(F)(F)F)c(OC)c3)C(=O)N2C1 [PP1869] | A (a compound having 10 or more and less than 20 is denoted as A) | A (a compound having 10 or more and less than 20 is denoted as A)
